Test results as given in patent US20090011935A1, “Method of Inducing Tolerance of Plants Against Bacterioses” (BASF SE, priority 2006, published 2009).

Tested on: bacteria
Assay: Effect of metiram alone on bacteria

Question: For metiram, which effect on bacteria is on record?
Answer: very close to zero
